Measured values: patent US6451732B1, “Herbicidal compositions of glyphosate trimesium” (Syngenta, Limited, priority 1999, dated 2002)
Where two headings read alike, the source gives them in different places.

Columns and labels:
[1] = test system: Abutilon theophrasti (ABUTH); experiment: Field plot injury rating (Example 3); format: in vivo; conditions: Glyphosate TMS 1.5 lb/acre, with ammonium sulfate
Description: (§1) In plots located in Champaign, Ill. (three replications), seeds of the following weed species were planted: Digitaria sanguinalis (“DIGSA”); Setaria faberi (“SETFA”); Setaria glauca (“SETLU”);Echinochloa crusgalli a crusgalli (“ECHCG”); Sorghum vulgare (“SORVU”); Sida spinosa (“SIDSP”); Ipomoea hederacea (“IPOHE”); Amaranthus retroflexus (“AMARE”); Xanthium strumarium (“XANST”); Helianthus annuns (“HELAN”) and Abutilon theophrasti (“ABUTH”). The plots were also planted with two varieties of glyphosate tolerant soybeans (“GLXMA P9294” and “GLXMA P9333”). When the soybeans had reached the 4-5 trifoliate stage, the plots were treated with glyphosate trimesium alone or glyphosate trimesium+bentazon, at the application rates indicated in Table 3. Injury to the species in each plot was tated 7 and 18 dats after application (DAA) of the glyphosate trimesium with or without bentazon and the results are shown in Table 3. The results shown in Table 3 are the mean of three replications.

[2] = test system: Amaranthus retroflexus (AMARE); experiment: Field plot injury rating (Example 3); format: in vivo; conditions: Glyphosate TMS 1.5 lb/acre, with ammonium sulfate
Description: as §1

[3] = test system: Digitaria sanguinalis (DIGSA); experiment: Field plot injury rating (Example 3); format: in vivo; conditions: Glyphosate TMS 1.5 lb/acre, with ammonium sulfate
Description: as §1

[4] = test system: Echinochloa crusgalli (ECHCG); experiment: Field plot injury rating (Example 3); format: in vivo; conditions: Glyphosate TMS 1.5 lb/acre, with ammonium sulfate
Description: as §1

[5] = test system: Helianthus annuns (HELAN); experiment: Field plot injury rating (Example 3); format: in vivo; conditions: Glyphosate TMS 1.5 lb/acre, with ammonium sulfate
Description: as §1

[6] = test system: Ipomoea hederacea (IPOHE); experiment: Field plot injury rating (Example 3); format: in vivo; conditions: Glyphosate TMS 1.5 lb/acre, with ammonium sulfate
Description: as §1

Setaria faberi (SETFA) = experiment: Field plot injury rating (Example 3); format: in vivo; conditions: Glyphosate TMS 1.5 lb/acre, with ammonium sulfate
Description: as §1

Setaria glauca (SETLU) = experiment: Field plot injury rating (Example 3); format: in vivo; conditions: Glyphosate TMS 1.5 lb/acre, with ammonium sulfate
Description: as §1

Sida spinosa (SIDSP) = experiment: Field plot injury rating (Example 3); format: in vivo; conditions: Glyphosate TMS 1.5 lb/acre, with ammonium sulfate
Description: as §1

Sorghum vulgare (SORVU) = experiment: Field plot injury rating (Example 3); format: in vivo; conditions: Glyphosate TMS 1.5 lb/acre, with ammonium sulfate
Description: as §1

[7] = test system: Xanthium strumarium (XANST); experiment: Field plot injury rating (Example 3); format: in vivo; conditions: Glyphosate TMS 1.5 lb/acre, with ammonium sulfate
Description: as §1

GLXMA P9294 = experiment: Field plot injury rating (Example 3); format: in vivo, glyphosate tolerant soybeans; conditions: Glyphosate TMS 1.5 lb/acre, with ammonium sulfate
Description: as §1

GLXMA P9333 = experiment: Field plot injury rating (Example 3); format: in vivo, glyphosate tolerant soybeans; conditions: Glyphosate TMS 1.5 lb/acre, with ammonium sulfate
Description: as §1

[8] = test system: glyphosate tolerant soybeans; experiment: Greenhouse postemergence injury to glyphosate tolerant soybeans, glyphosate trimesium and bentazon (Example 2)
Description: (§2) The soil was fortified with fertilizer (10-10-10) prior to seeding The compounds were dissolved in water and applied with a carrier volume of 200 L/ha. All treatments were replicated four times.
(§3) The pots were placed in a greenhouse and maintained under good growing conditions. The greenhouse evironmental systems provided the plants with natural and artificial lighting to attaim 12 hours of light per day. Day and night temperatures were maintained at 29° and 21° C. respectively.
(§4) Plants were grown to the V2 or 2 leaf stage prior to compound application. Plants were sprayed 30.5cm (12 inches) above the foliage with the spray solution as prepared for the pre-emergence test. Treated plants were then returned to a greenhouse and watered daily without wetting the foliage. Injury to plants was evaluated 5 days after treatment (“CDAT”) and 13 DAT. Injury was evaluated as percent control being the total injury to the plants due to all factors including: inhibited emergence, stunting, malformation, albinism, chlorosis, and other types of plant injury.

[9] = test system: glyphosate tolerant soybeans; conditions: postemergence
Description: as §2, §3, §4

glyphosate tolerant corn = conditions: postemergence
Description: as §2, §3, §4

[10] = Glyphosate trimesium 750 g/ha, Bentazon 0 g/ha
[11] = Glyphosate trimesium 1500 g/ha, Bentazon 0 g/ha
[12] = Glyphosate trimesium 3000 g/ha, Bentazon 0 g/ha

Compound: C[S+](C)C.O=C([O-])CNCP(=O)(O)O [Glyphosate trimesium, trimethylsulphonium salt of N-phosphonomethylglycine]
- Injury ABUTH 7 DAA ([1]; 7 DAA): 40
- Injury ABUTH 18 DAA ([1]; 18 DAA): 80
- Injury AMARE 7 DAA ([2]; 7 DAA): 100
- Injury AMARE 18 DAA ([2]; 18 DAA): 100
- Injury DIGSA 7 DAA ([3]; 7 DAA): 99
- Injury DIGSA 18 DAA ([3]; 18 DAA): 100
- Injury ECHCG 7 DAA ([4]; 7 DAA): 67
- Injury ECHCG 18 DAA ([4]; 18 DAA): 94
- Injury HELAN 7 DAA ([5]; 7 DAA): 99
- Injury HELAN 18 DAA ([5]; 18 DAA): 100
- Injury IPOHE 7 DAA ([6]; 7 DAA): 43
- Injury IPOHE 18 DAA ([6]; 18 DAA): 68
- Injury SETFA 7 DAA (Setaria faberi (SETFA); 7 DAA): 96
- Injury SETFA 18 DAA (Setaria faberi (SETFA); 18 DAA): 100
- Injury SETLU 7 DAA (Setaria glauca (SETLU); 7 DAA): 95
- Injury SETLU 18 DAA (Setaria glauca (SETLU); 18 DAA): 100
- Injury SIDSP 7 DAA (Sida spinosa (SIDSP); 7 DAA): 60
- Injury SIDSP 18 DAA (Sida spinosa (SIDSP); 18 DAA): 83
- Injury SORVU 7 DAA (Sorghum vulgare (SORVU); 7 DAA): 93
- Injury SORVU 18 DAA (Sorghum vulgare (SORVU); 18 DAA): 100
- Injury XANST 7 DAA ([7]; 7 DAA): 99
- Injury XANST 18 DAA ([7]; 18 DAA): 100
- Injury GLXMA P9294 7 DAA (GLXMA P9294; 7 DAA): 8
- Injury GLXMA P9294 18 DAA (GLXMA P9294; 18 DAA): 9
- Injury GLXMA P9333 7 DAA (GLXMA P9333; 7 DAA): 5
- Injury GLXMA P9333 18 DAA (GLXMA P9333; 18 DAA): 6
- Soybean injury (percent control) 5 DAT [8, 10]: 13%
- Soybean injury (percent control) 13 DAT [8, 10]: 7%
- Soybean injury (percent control) 5 DAT [8, 11]: 37%
- Soybean injury (percent control) 13 DAT [8, 11]: 27%
- Soybean injury (percent control) 5 DAT [8, 12]: 58%
- Soybean injury (percent control) 13 DAT [8, 12]: 35%

Compound: C[S+](C)C.[Cl-] [TMS, trimethylsulphonium chloride]
- Soybean injury (percent control) 5 DAT ([9]; TMS 420 g/ha, Bentazon 0 g/ha): 15%
- Soybean injury (percent control) 13 DAT ([9]; TMS 420 g/ha, Bentazon 0 g/ha): 13%
- Soybean injury (percent control) 5 DAT ([9]; TMS 840 g/ha, Bentazon 0 g/ha): 24%
- Soybean injury (percent control) 13 DAT ([9]; TMS 840 g/ha, Bentazon 0 g/ha): 18%
- Corn injury (percent control) 5 DAT (glyphosate tolerant corn; TMS 420 g/ha, Bentazon 0 g/ha): 14%
- Corn injury (percent control) 13 DAT (glyphosate tolerant corn; TMS 420 g/ha, Bentazon 0 g/ha): 48%
- Corn injury (percent control) 5 DAT (glyphosate tolerant corn; TMS 840 g/ha, Bentazon 0 g/ha): 19%
- Corn injury (percent control) 13 DAT (glyphosate tolerant corn; TMS 840 g/ha, Bentazon 0 g/ha): 60%

Compound: CC(C)N1C(=O)c2ccccc2NS1(=O)=O [Bentazon, bentazon]
- Soybean injury (percent control) 5 DAT ([9]; TMS 0 g/ha, Bentazon 250 g/ha): 2%
- Soybean injury (percent control) 5 DAT ([9]; TMS 0 g/ha, Bentazon 500 g/ha): 8%
- Corn injury (percent control) 5 DAT (glyphosate tolerant corn; TMS 0 g/ha, Bentazon 250 g/ha): 0%
- Corn injury (percent control) 13 DAT (glyphosate tolerant corn; TMS 0 g/ha, Bentazon 250 g/ha): 0%
- Corn injury (percent control) 5 DAT (glyphosate tolerant corn; TMS 0 g/ha, Bentazon 500 g/ha): 0%
- Corn injury (percent control) 13 DAT (glyphosate tolerant corn; TMS 0 g/ha, Bentazon 500 g/ha): 0%
- Soybean injury (percent control) 5 DAT ([8]; Glyphosate trimesium 0 g/ha, Bentazon 4 g/ha): 0%
- Soybean injury (percent control) 5 DAT ([8]; Glyphosate trimesium 0 g/ha, Bentazon 8 g/ha): 0%
- Soybean injury (percent control) 5 DAT ([8]; Glyphosate trimesium 0 g/ha, Bentazon 16 g/ha): 0%
- Soybean injury (percent control) 5 DAT ([8]; Glyphosate trimesium 0 g/ha, Bentazon 32 g/ha): 0%
- Soybean injury (percent control) 5 DAT ([8]; Glyphosate trimesium 0 g/ha, Bentazon 64 g/ha): 0%
